{"source": "patent US20230263900A1", "about": "“DENDRIMER-DRUG CONJUGATE” (priority 2020, published 2023)", "key": {"Solubility studies": {"experiment": "Solubility studies", "assay_type": "physicochemical", "method": "The solubility of BHALys[Lys]2[Lys]4[Lys]8[Lys]16[Lys]32[(α-NH-3′ O-Glu-Remdesivir)32(ε-NH-COPEG2000)32] RHa-3 in water was determined to be ≥200 mg/mL (or ≥43.6 mg/mL Remdesivir RHa-1) by adding water (250 μL) to 50.0 mg of BHALys [Lys]2[Lys]4[Lys]8[Lys]16[Lys]32[(α-NH-3′ O-Glu-Remdesivir)32(ε-NH-COPEG2000)32] and swirling briefly. After 2 min, the resulting solution was visually inspected for particulates and found to be a clear solution (see FIG. 2). Solutions shown are 40 mg/ml Remdesivir equivalents (equivalent to 200 mg/ml of conjugate RHa-3).\nThe solubility of BHALys[Lys]2[Lys]4[Lys]8[Lys]16[Lys]32[(α-NH-6N-TDA-Remdesivir)32(ε-NH-COPEG2000)32] RHa-5, in EtOH:Water (1:9 v/v) was determined to be ≥543 mg/mL (or ≥107 mg/mL Remdesivir RHa-1) by adding water EtOH:Water (1:9 v/v, 400 μL) to 380 mg of RHa-5. The mixture was swirled briefly and left to stand at rt. After 1.5 h the resulting solution (volume recorded=700 μL) was visually inspected for particulates and found to be a clear solution.\nThe solubility of BHALys[Lys]2[Lys]4[Lys]8[Lys]16[Lys]32[(α-NH-6N-TDA-Remdesivir)32(ε-NH-COPEG1000)32] RHa-17 in EtOH:Water (1:9 v/v) was determined to be ≥354* mg/mL (or ≥85 mg/mL Remdesivir RHa-1) by adding EtOH:Water (1:9 v/v, 958 μL) portionwise to 525 mg of RHa-17, over a period of 1.5 h with intermittent swirling. The resulting solution was visually inspected for particulates and found to be a clear solution.\n(*Total volume not recorded. Assumes 1 mg construct contributes to 1 μL of final solution (i.e., total volume of final solution=1483 μL))."}, "[1]": {"experiment": "Release of Remdesivir in PBS buffer (Release Method 1)", "assay_type": "physicochemical", "conditions": "PBS buffer with 10% v/v DMSO, pH 7.4, 37° C.", "method": "Release Method 1: An accurately weighed amount of the Remdesivir-dendrimer (10 mg) construct was dissolved in pH 7.4 PBS buffer:DMSO (9:1 v/v) and the volume made up to 20.0 mL in a volumetric flask to give a 0.5 mg/mL stock solution. The stock solution was aliquoted into several 2 mL screw-cap vials, the caps fitted and the vials heated at 37° C. The aliquoted solutions were analyzed at different time points by HPLC (HPLC Method 3). The concentration of Remdesivir RHa-1 was calculated by comparing the area under the peak associated with Remdesivir RHa-1 to a standard curve in MeCN:DMSO (9:1, v/v). The percentage of Remdesivir RHa-1 released is the percentage of available Remdesivir RHa-1 based on the loading of the construct as determined by ^1H NMR analysis (API Loading Method 1).\nThe extent to which the Remdesivir RHa-1 was released over time in PBS buffer (with 10% v/v DMSO) (pH 7.4) at 37° C. was determined for 5 constructs, RHa-17, RHa-15, RHa-11, RHa-5 and RHa-3 (Release Method 1) over 120 hours.\nTrace amounts of other components were also observed (presumed to be degradation products of Remdesivir RHa-1). The area under the resolvable (separated) peaks associated with these degradants was also added to the peak area associated with released Remdesivir RHa-1.\nBHALys [Lys]2[Lys]4[Lys]8[Lys]16[Lys]32[(α-NH-6N-TDA-Remdesivir)32(ε-NH-COPEG2000)32] RHa-5 contained 1.77% free Remdesivir RHa-1 at t=0 min. The value of released Remdesivir RHa-1 shown in FIG. 3 has been adjusted to take this into account."}, "[2]": {"experiment": "Viscosity measurements (Viscosity Method 1)", "assay_type": "physicochemical", "conditions": "50 mg/mL Remdesivir equivalents in EtOH: Water (1:9 v/v)", "method": "Viscosities were measured on Anton Paar ViscoQC300 Viscometer using CC-12 cup.\nViscosity Method 1: A reference standard solution (Standard Type: RT500, CAS No. 63148-62-9, Paragon Scientific Ltd) was first recorded and found to be within the range of reported value (at 20° C.: found 556.6 cP, theoretical 551.0 cP; at 25° C.: found 503.3 cP, theoretical 498.6 cP). Accurately weighed quantities of respective conjugates were dissolved in EtOH:Water […] to make a 50 mg/mL Remdesivir equivalent solution (total volume 2.30-2.40 mL) and the viscosity of the solution was recorded at 20° C. and 25° C.\nViscosities of 2 formulations containing either RHa-5 or RHa-17 in EtOH: Water (1:9 v/v) were measured using Viscosity Method 1"}, "in vivo": {"experiment": "in vivo", "method": "The ability to deliver dendrimer-drug conjugates via the pulmonary route was evaluated.\nMale Sprague Dawley (SD) rats (8-9 weeks, 270-320 g) were obtained from Monash Animal Services (VIC, Australia). Female F344 rats (8-10 weeks) were supplied by Animal Resources Centre (Perth, Australia).\nBlood samples and urine were then collected for up to 5 days. […] At the completion of the study, bronchoalveolar lavage fluid (BALF), lungs, liver, heart, spleen, kidneys and pancreas were collected from rats for biodistribution analysis. BALF was collected via the intratracheal perfusion of 3×5 ml saline Alveolar macrophages were isolated from BALF via centrifugation at 600×g for 10 mins. […] Plasma, urine, feces, and organs were analysed for radiolabel via liquid scintillation counting. Total doxorubicin in plasma, BALF and lung tissue in pulmonary dosed rats was analysed via a fluorescence HPLC (Kaminskas L M, et al, Nanomedicine. 2012 January; 8(1):103-11).\nData are represented as mean±s.d. (n=3-7)."}, "[3]": {"set-up": "species or system rats", "conditions": "rat, in vivo", "method": "The dendrimer BHALys[Lys]2[Lys]4[Lys]8[Lys]16(PEG2000)32 was constituted to 10 mg/ml in PBS and stored at −20° C. until required. The construction of the dendrimer was as described previously (Kaminskas L M, et al Mol Pharm. 2008 May-June; 5(3):449-63).\nRats were intravenously administered 1 ml of dendrimer in sterile saline over 2 mins. […] For the pharmacokinetic evaluation of dendrimer administered to the lungs as an aerosolized dose, rats were cannulated only via the right carotid artery. Rats were administered 1 mg of dendrimer in 100 μl saline via intratracheal insertion of the Penn Century micro spray aerosol device to the lungs of rats under isoflurane anaesthesia. […] Plasma, urine, feces and lungs were analysed for radiolabel via liquid scintillation counting\n(n=4-5 rats) and data is normalized to 5 mg/kg dendrimer. […] Data in Figure B represents mean±s.d. (n=4 rats) 7 days after the pulmonary dose."}, "[4]": {"conditions": "cited from earlier work"}, "[5]": {"conditions": "male, Sprague-Dawley, rat, in vivo"}, "[6]": {"conditions": "male, Sprague-Dawley, rat, in vivo, inhaled or intranasal, 0.6 mg"}}}
{"compound": "BHALys[Lys]2[Lys]4[Lys]8[Lys]16[Lys]32[(α-NH-3′O-Glu-Remdesivir)32(ε-NH-COPEG2000)32] [RHa-3]", "values": [{"measurement": "Solubility in water", "setting": "Solubility studies; water, conjugate mass, visual inspection after 2 min", "value": "≥ 200", "unit": "mg/mL"}, {"measurement": "Solubility in water, as Remdesivir RHa-1", "setting": "Solubility studies; water, expressed as Remdesivir RHa-1", "value": "≥ 43.6", "unit": "mg/mL"}, {"measurement": "Approx. Time taken for 50% Remdesivir release", "setting": "[1]", "value": ">120", "unit": "h"}]}
{"compound": "BHALys[Lys]2[Lys]4[Lys]8[Lys]16[Lys]32[(α-NH-6N-TDA-Remdesivir)32(ε-NH-COPEG1000)32] [RHa-17]", "values": [{"measurement": "Solubility in EtOH:Water (1:9 v/v)", "setting": "Solubility studies; EtOH:Water (1:9 v/v), conjugate mass, rt", "value": "≥ 354", "unit": "mg/mL"}, {"measurement": "Solubility in EtOH:Water (1:9 v/v), as Remdesivir RHa-1", "setting": "Solubility studies; EtOH:Water (1:9 v/v), expressed as Remdesivir RHa-1", "value": "≥ 85", "unit": "mg/mL"}, {"measurement": "Approx. Time taken for 50% Remdesivir release", "setting": "[1]", "value": "~48", "unit": "h"}, {"measurement": "Viscosity at 20° C.", "setting": "[2]", "value": 38.99, "unit": "cP"}, {"measurement": "Viscosity at 25° C.", "setting": "[2]", "value": 29.32, "unit": "cP"}]}
{"compound": "BHALys[Lys]2[Lys]4[Lys]8[Lys]16[Lys]32[(α-NH-3′O-DGA-Remdesivir)32(ε-NH-COPEG2000)32] [RHa-11]", "values": [{"measurement": "Approx. Time taken for 50% Remdesivir release", "setting": "[1]", "value": "~3", "unit": "h"}]}
{"compound": "COc1cccc2c1C(=O)c1c(O)c3c(c(O)c1C2=O)C[C@@](O)(C(=O)CO)C[C@@H]3O[C@H]1C[C@H](N)[C@H](O)[C@H](C)O1", "note": "[Doxorubicin, doxorubicin]", "values": [{"measurement": "Fabs 0-∞, doxorubicin", "setting": "in vivo; [5]", "value": "83 ± 9", "unit": "%"}, {"measurement": "Kel, doxorubicin", "setting": "in vivo; [5]", "value": "0.132 ± 0.010 ^−h"}, {"measurement": "Tmax", "setting": "in vivo; [6]", "value": "6 ± 3", "unit": "min"}, {"measurement": "half-life", "setting": "in vivo; [6]", "value": "5 ± 0.4", "unit": "h"}, {"measurement": "AUC", "setting": "in vivo; male, Sprague-Dawley, rat, in vivo, iv, 0.75 mg/kg", "value": "210 ± 40", "unit": "ng·h/mL"}, {"measurement": "AUC", "setting": "in vivo; male, Sprague-Dawley, rat, plasma, inhaled or intranasal, 0.6 mg", "value": "170 ± 20", "unit": "ng·h/mL"}, {"measurement": "Kel, doxorubicin", "setting": "in vivo; rats, intravenous, doxorubicin normalized to 0.75 mg/kg", "value": "0.518 ± 0.312 ^−h"}]}
{"compound": "BHALys[Lys]2[Lys]4[Lys]8[Lys]16(PEG2000)32", "values": [{"measurement": "Bioavailability after lung delivery", "setting": "[3]", "value": "2.4±3.3", "unit": "%"}]}
{"compound": "N#C[C@@]1(c2ccc3c(N)ncnn23)O[C@H](CO)[C@@H](O)[C@H]1O", "note": "[GS-441524]", "values": [{"measurement": "AUC0-24", "setting": "[4]; IV infusion of 200 mg Remdesivir, healthy human subjects", "value": 7.7, "unit": "µM·h"}, {"measurement": "Cmax", "setting": "[4]; after 200 mg dose of Remdesivir", "value": 152, "unit": "ng/mL"}, {"measurement": "Peak plasma concentration", "setting": "[4]; after 30 minutes infusion of Remdesivir", "value": "about 150 ng/ml"}]}
